In one experiment the test system is RPMI8226 cells. The experiment can be described thus: MTT assay, VEGF-induced proliferation of RPMI8226 cells. It is filed as cell-based. The settings on record: for effect on VEGF-induced proliferation of RPMI8226 cells: VEGF 50 ng/ml, 25 μM peptide, 24 hrs, MTT. As to the method: The multiple myeloma line RPMI8226 was cultivated in complex medium (RPMI1640) supplemented with 10% (vol/vol) heat-inactivated fetal calf serum (Invitrogen), 50 μg/mL penicillin, 50 μg/mL streptomycin, and 2 mM L-glutamine at 37° C. in a 5% CO2 atmosphere. RPMI8226 cells were cultured in serum-free RPMI1640 medium for 24 hrs, and then cells were seeded in 48-well culture plates (3×10^5 cells/well) and continued to culture in 0.5 ml fresh serum-free RPMI1640 medium containing 25 μM peptide for another 24 hrs. The cell viability was determined by the MTT assay. Briefly, 50 μL of MTT stock solution (50 μL) (5 mg MTT dissolved in 1 ml of sterile PBS) was added to each culture well. In addition, 50 μL of the MTT stock solution was added in 500 μL of medium as the negative control. The culture plate was incubated at 37° C. for 4 hours. Aliquots (450 μl) from each sample were taken to a new well of 48-well culture plate, adding 100 μL DMSO, mixing thoroughly using the pipette and reacted at 37° C. for 20 min and read absorbance at 570 nm. These synthesized peptides were then subject to MTT assay, in which vascular endothelial growth factor (VEGF) was used as a stimulant to induce cell proliferation. Results are depicted in FIGS. 1 to 4.
(In general: Formazan colour is commonly taken as a measure of viable cells.)

The test system of experiment [1] is HUVECs. The experiment can be described thus: VEGF-induced HUVEC proliferation assay. Particulars: VEGF (10 ng/mL) + 25 μM peptide; vs untreated HUVECs. It is filed as cell-based. As to the method:
HUVECs (1×10^5 cells per well of 6-well plate) were grown in Medium 200 with Low Serum Growth Supplement (LSGS Kit, supplement contains 1.9% FBS, 3 ng/ml bFGF, 10 μg/ml heparin, 1 μg/ml hydrocortisone, and 10 ng/ml EGF). Culture plates were coated with 2% gelatin. Cells (passages 4-8) were cultured at 37° C. in a humidified atmosphere of 5% CO2. […]
HUVECs (1×10^5 cells per well of 6-well plate) in Medium 200 supplemented with LSGS Kit were allowed to grow onto 6-well plates coated with 2% gelatin for 24 hours at 37° C. in 5% CO2. The culture medium was then replaced with serum free Medium 200 overnight. […] Then, cells were harvested by trypsin-EDTA and counted using a hemocytometer.

In experiment [2] the test system is HUVECs. The experiment is described as follows: Endothelial cell capillary-like tube formation assay. The experiment is classed as cell-based. Particulars: VEGF (10 ng/mL) + 25 μM peptide; vs untreated HUVECs. As to the method:
To examine the effect of the present synthetic peptide on in vitro angiogenesis, growth factor-reduced matrigel was pipetted into pre-chilled 24-well plates (150 μl matrigel per well) and polymerized for 45 min at 37° C. […] In this experiment, images were captured using a Cannon camera on Zeiss inverted microscope with magnification ×40 and tube length was quantified using Image analysis software (Image-Pro Plus). The control peptide as used in the present invention has the sequence of DLYRVR (SEQ ID NO: 10).

The subject of another experiment is rat aortic ring. The experiment can be described thus: Rat aortic ring assay (ex vivo microvessel sprouting). Further details: species or system Sprague Dawley rats. The settings on record: beta-FGF induced; peptide 50 μM. As to the method: Thoracic aortas were removed from euthanized 10-week-old male Sprague Dawley rats, and gently stripped off periaortic fibroadipose tissue. Aortas were sectioned to about 2-mm length rings, which were embedded in Matrigel. To induce angiogenesis, human recombinant bFGF (50 ng/ml) or bFGF plus the peptide (50 μM) was added in Matrigel. Gel (200 μl) containing an aortic ring was polymerized in 12-well plates (37° C. for 30 min) and then incubated with 1 ml of Medium 200 supplemented with 100 units/ml penicillin, and […] streptomycin and 2% FBS at 37 ° C. The cultures were propagated at 37 ° C. in a humidified incubator for up to 7 days. Sprouts were recorded using an inverted microscope platform (Leica DM16000B) with bright-field optics. Each ring was scored by three independent observers on a scale 0-4 depending on the degree of sprouting vessel being observed (0=no sprouting, 4=profuse sprouting). The experiment was repeated in triplicates.

For another experiment, the system named is B16-F10 melanoma cells. The experiment is described as follows: Experimental pulmonary metastasis in mice. It is filed as in vivo, C57BL/6 mice. The settings on record: for No. lung colonies / effect on number of colonies on the surface of the lung / in vivo metastasis: 10 mg/Kg intraperitoneal every 2 days; for No. lung colonies: day 8, n = 5; for Inhibition (%): lung colonies vs vehicle, 10 mg/Kg. As to the method:
2×10^5 B16-F10 cells were suspended in 100 μl PBS and checked for viability using trypan blue staining (>95%). The B16-F10 cells were then injected into the tail vein of the 6-week-old female C57BL/6 mice; while vehicle (DMSO), the present synthetic peptide or the control peptide (10 mg/kg) were administered by intraperitoneal injections every 2 days after the B16-F10 cell injection. Five mice were used for each group. On day 8 after inoculation of cells, the lungs were removed, and the number of visible colonies on the surface of the lungs were counted using a dissecting microscope.
Metastasis is the foremost cause of death from cancer. In this example, to investigate the efficacy of the present synthetic peptide on the metastasis of cancer cells, B16-F10 cells were injected into the tail vein of a mouse, the animal was then treated with the present synthetic peptide (7-mer or 7-mer DD, 10 mg/Kg) by intraperitoneal injections every 2 days. Upon completion of the experiment, the lungs were then removed and the tumor colonies visible to the eyes were then counted. Results are depicted in FIG. 10.

The subject of experiment [3] is STZ-induced diabetic mice. The experiment is described as follows: Vascular abnormalities in the retina of diabetic mice. The experiment is classed as in vivo. The settings on record: for Fluorescence Intensity (Fold): leaked FITC-BSA in entire retina, vs vehicle. As to the method: Diabetic mice were generated by a single intraperitoneal injection of streptozotocin (STZ) (150 mg/kg body weight). STZ was freshly prepared in 0.1 M citrate buffer (pH 4.5). After injection, mice were supplied with 10% sucrose overnight to prevent sudden hypoglycemic shock. After 1 week, mice with non-fasting blood glucose levels >500 mg/dl were defined as diabetic and used for the experiments. DMSO Vehicle or the present synthetic peptide (10 mg/kg; n≥3 per peptide) were administered by intraperitoneal injections twice a day. After treatment for 24 h, mice were intraperitoneal injected with 100 mg/kg of BSA-FITC for further 30 min.
To determine vascular lesions (hemorrhaging areas) in retina, the animals were euthanized by CO2 inhalation, and the eyes were enucleated and fixed by 2% paraformaldehyde for 2 hr and flat-mounted onto glass slides to obtain optical sections by an epifluorescence microscopy. Vascular lesions in the retina was scored in all four retinal quadrants of flat mounts by using a 20× objective. Six microscopic fields were sampled in each quadrant in both the central and peripheral retina, and data were presented as the average number of lesions/retina.
Vascular FITC-BSA leakage was determined by a fluorescence spectrofluorometer based on standard curves of FITC-BSA at excitation and emission wavelengths of 488 and 535 nm, respectively, and then normalized to a non-injected control retina. For this analysis, retinas were dissected from treated and untreated diabetic mice after BSA-FITC injections, and each was solubilized in 300 μL ice-cold PBS.
Diabetic retinopathy is characterized by blood-retinal barrier (BRB) breakdown and neurotoxicity. To evaluate the possible beneficial effect of the present synthetic peptides on diabetic retinopathy, STZ-induced diabetic mice were intraperitoneally injected with 7-mer peptide, DMSO vehicle or the control peptide (SEQ ID NO: 22). The retinal vascular abnormality was then monitored by detecting the extravasation of BSA-fluorescein. Results are depicted in FIG. 11.

Square brackets hold non-standard residues; d marks the D form. Ends that are not written are not given here.

For the substance “NH2-Asp-Leu-Tyr-Arg-Val-Arg-(D-Ser)-COOH (H-DLYRVR[dS]-OH) [7-mer DS]”, the “biological activity of the analogue relative to the 7-mer (summary statement of the description)” value in the experiment on RPMI8226 cells (summary of Example 1 findings) was “lose its biological activity”. Also, the “Cell number (Fold)” value in the experiment with HUVECs [1] is reported as 1.59 ± 0.084 Fold. Besides, the “Tube length (Fold)” value in the experiment with HUVECs [2] was 3.45 ± 0.26 Fold. Also, the “level of sprouting microvessels around the aortic ring” value (“level” below) in the experiment on rat aortic ring is reported as “unaffected”. For the same substance, in the experiment with B16-F10 melanoma cells, the No. lung colonies is reported as 245 ± 30.4 and the “Inhibition (%)” value is −9.0%. Also, the “Fluorescence Intensity (Fold)” value in experiment [3] is listed as 0.96 ± 0.12 Fold.

As for “NH2-Asp-Leu-Tyr-Arg-Gln-Lys-Ser-COOH (DLYRQKS; not fully specified (N-terminus, C-terminus); printed as NH2-Asp-Leu-Tyr-Arg-Gln-Lys-Ser-COOH) [7-mer QK]”, the “effect on VEGF-induced proliferation of RPMI8226 cells” value (shortened to “effect on VEGF-induced proliferation”) in the experiment with RPMI8226 cells is listed as “could sustain 7-mer bioactivity, only partly”. Moreover, the “Cell number (Fold)” value in the experiment with HUVECs [1] came to 1.09 ± 0.067 Fold. Further, in the experiment with HUVECs [2], the “Tube length (Fold)” value stood at 1.46 ± 0.31 Fold. Besides, in the experiment on rat aortic ring, the “level” value is “inhibited”. In the experiment on B16-F10 melanoma cells, the “effect on number of colonies on the surface of the lung / in vivo metastasis” value (shortened to “effect … of the lung / in vivo metastasis”) is recorded as “may suppress in vivo metastasis”, the No. lung colonies is reported as 82 ± 16.3 and the “Inhibition (%)” value was 63.5%. Moreover, in experiment [3], the “extravasation of FITC-BSA” value is listed as “may significantly prevent” and the “Fluorescence Intensity (Fold)” value is listed as 0.31 ± 0.081 Fold.

Regarding “NH2-Asp-Leu-Tyr-Lys-Val-Pro-Ser-COOH (DLYKVPS; not fully specified (N-terminus, C-terminus); printed as NH2-Asp-Leu-Tyr-Lys-Val-Pro-Ser-COOH) [7-mer KP]”, the “effect on VEGF-induced proliferation” value in the experiment on RPMI8226 cells is recorded as “could sustain 7-mer bioactivity, only partly”. Moreover, in the experiment on HUVECs [1], the “Cell number (Fold)” value was 1.02 ± 0.075 Fold. Moreover, in the experiment on HUVECs [2], the “Tube length (Fold)” value is on record as 1.62 ± 0.29 Fold. Also, the “level” value in the experiment with rat aortic ring is “inhibited”. Besides, in the experiment with B16-F10 melanoma cells, the “effect … of the lung / in vivo metastasis” value is “may suppress in vivo metastasis”, the No. lung colonies was 69 ± 11.5 and the “Inhibition (%)” value is listed as 69.3%. In experiment [3], the “extravasation of FITC-BSA” value is recorded as “may significantly prevent” and the “Fluorescence Intensity (Fold)” value worked out at 0.37 ± 0.13 Fold.

For the substance “NH2-Asp-Leu-Trp-Arg-Ile-Arg-Ser-COOH (DLWRIRS; not fully specified (N-terminus, C-terminus); printed as NH2-Asp-Leu-Trp-Arg-Ile-Arg-Ser-COOH) [7-mer WI]”, the “effect on VEGF-induced proliferation” value with RPMI8226 cells was “could sustain 7-mer bioactivity, only partly”. Besides, in the experiment with HUVECs [1], the “Cell number (Fold)” value is 0.91 ± 0.078 Fold. Moreover, the “Tube length (Fold)” value in the experiment on HUVECs [2] came to 1.23 ± 0.22 Fold. Moreover, in the experiment with rat aortic ring, the “level” value is reported as “inhibited”. In the experiment on B16-F10 melanoma cells, the “effect … of the lung / in vivo metastasis” value was “may suppress in vivo metastasis”, the No. lung colonies was determined as 74 ± 24.3 and the “Inhibition (%)” value came out at 67.3%. Moreover, in experiment [3], the “extravasation of FITC-BSA” value is reported as “may significantly prevent” and the “Fluorescence Intensity (Fold)” value was 0.31 ± 0.085 Fold.

Regarding “NH2-Asn-Val-Tyr-Arg-Val-Arg-Ser-COOH (NVYRVRS; not fully specified (N-terminus, C-terminus); printed as NH2-Asn-Val-Tyr-Arg-Val-Arg-Ser-COOH) [7-mer NV]”, the “effect on VEGF-induced proliferation” value in the experiment with RPMI8226 cells was “could sustain 7-mer bioactivity, only partly”. The “Cell number (Fold)” value in the experiment on HUVECs [1] was 1.01 ± 0.086 Fold. In the experiment with HUVECs [2], the “Tube length (Fold)” value was found to be 1.41 ± 0.32 Fold. Also, the “level” value in the experiment with rat aortic ring is listed as “inhibited”. Further, in the experiment on B16-F10 melanoma cells, the “effect … of the lung / in vivo metastasis” value is “may suppress in vivo metastasis”, the No. lung colonies turned out to be 55 ± 16.5 and the “Inhibition (%)” value stood at 75.8%. In experiment [3], the “extravasation of FITC-BSA” value is recorded as “may significantly prevent” and the “Fluorescence Intensity (Fold)” value is on record as 0.35 ± 0.11 Fold.

The values above are taken from patent US10463709B2, “Short synthetic peptide for treating diseases and/or conditions related to angiogenesis” (MacKay Memorial Hospital, priority 2015, dated 2019).
